Where a name gives a salt, the structure may show the parent alone. Read-outs that look alike come from different tables or passages of the source.
Target: Nrf2-Keap1 complex (Homo sapiens, UniProt Q14145)
Experiment: cell-based
Format: cell-based
Details: for activation at 16 µM / activation at 32 µM: 3 h; for activation at 16 µM: read-out: Activation 100 nL; for activation at 32 µM: read-out: Activation 200 nL
[1] = Table 2, 100 nL compound, screen run at 16 and 32 μM, 3 hr
[2] = Table 2, 200 nL compound, screen run at 16 and 32 μM, 3 hr
[3] = Table 1A, 100 nL compound, screen run at 16 and 32 μM, 3 hr
[4] = Table 1A, 200 nL compound, screen run at 16 and 32 μM, 3 hr

Sequence of Nrf2-Keap1 complex (Q14145 whole entry, one chain of several): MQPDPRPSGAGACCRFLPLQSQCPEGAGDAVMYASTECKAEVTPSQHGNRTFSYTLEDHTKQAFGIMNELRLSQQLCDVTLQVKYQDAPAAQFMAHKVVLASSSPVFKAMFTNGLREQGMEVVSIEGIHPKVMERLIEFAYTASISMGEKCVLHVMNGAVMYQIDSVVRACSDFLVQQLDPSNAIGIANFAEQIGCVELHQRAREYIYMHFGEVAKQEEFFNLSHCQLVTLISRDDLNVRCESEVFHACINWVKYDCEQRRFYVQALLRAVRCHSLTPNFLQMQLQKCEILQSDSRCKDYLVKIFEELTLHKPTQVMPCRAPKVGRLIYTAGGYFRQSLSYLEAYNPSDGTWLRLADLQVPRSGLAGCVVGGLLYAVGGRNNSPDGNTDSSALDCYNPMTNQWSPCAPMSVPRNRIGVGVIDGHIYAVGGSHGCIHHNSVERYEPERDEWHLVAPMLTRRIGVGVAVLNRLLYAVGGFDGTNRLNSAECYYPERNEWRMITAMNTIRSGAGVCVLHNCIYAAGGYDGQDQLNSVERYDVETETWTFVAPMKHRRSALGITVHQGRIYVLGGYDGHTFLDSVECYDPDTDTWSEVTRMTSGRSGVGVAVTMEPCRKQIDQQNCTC

Row | Compound | Activation 100 nL [%] | Activation 200 nL [%] | 100 nL (luminescence) [1] | 200 nL (luminescence) [2] | activation at 16 µM [%] | activation at 32 µM [%] | other results
1 | O=C(C=C(O)c1ccccc1)c1ccccc1O [2′,beta-DIHYDROXYCHALCONE] | 112 | −18 | 2064 | 44 |  |  | 
2 | CCCCC(CC)CNC(=N)NC(=N)NCCCCCCNC(=N)NC(=N)NCC(CC)CCCC (stereo not shown) [ALEXIDINEHYDROCHLORIDE] |  |  | 1900 | 52 | 101 | -18 | 
3 | O=c1c(O)c(-c2ccc(O)cc2)oc2cc(O)cc(O)c12 [kaempferol, 3,5,7,4′-tetrahydroxyflavone] |  |  |  |  |  |  | fold less effective than quercetin and fisetin (flavone SAR): 2.5 fold
4 | CN(C)c1ccc(O)c2c1C[C@H]1C[C@H]3[C@H](N(C)C)C(O)=C(C(N)=O)C(=O)[C@@]3(O)C(O)=C1C2=O [MINOCYCLINEHYDROCHLORIDE, reference compound] |  |  |  |  | 326 | 169 | Neh2-luc reporter activation: 200%
5 | CC1=CC(=O)[C@H]2C(C)(C)CCC[C@]2(C)[C@@]1(O)CCc1ccoc1 [SOLIDAGENONE] |  |  |  |  | 121 | 77 | 100 nL (luminescence) [3]: 1976; 200 nL (luminescence) [4]: 2220
6 | CCOc1ccc(C(=O)c2ccc(OC)c(O)c2O)cc1 [2,3-DIHYDROXY-4-METHOXY-4′-ETHOXYBENZOPHENONE] |  |  | 2142 | 1324 | 117 | 65 | 
7 | Cc1coc2c1C(=O)C(=O)c1c-2ccc2c1CCCC2(C)C [TANSHINONEIIA] |  |  | 5092 | 2452 | 354 | 87 | 
8 | CC(=O)O[C@H]1CC[C@]2(C)[C@H]3CC[C@@]4(C)[C@H](c5ccoc5)OC(=O)[C@H]5O[C@]54[C@]3(C)[C@H](OC(C)=O)C[C@H]2C1(C)C [3beta-ACETOXYDEOXODIHYDROGEDUNIN] | 37 | 42 | 924 | 972 |  |  | 
9 | COC(=O)/C=C/C(C)=C\C=C\C(C)=C\C=C\C=C(C)\C=C\C=C(C)\C=C\C(=O)O [BIXIN] |  |  |  |  | 113 | 113 | 100 nL (luminescence): 1880; 200 nL (luminescence): 3036
10 | O=C1C=C(O)C(=O)c2ccccc21 [LAWSONE] |  |  |  |  | 54 | 34 | 100 nL (luminescence): 840; 200 nL (luminescence): 1140
11 | [H]/N=C(\N/C(=N/[H])NCCCCCCNC(=N)NC(=N)Nc1ccc(Cl)cc1)Nc1ccc(Cl)cc1 [CHLORHEXIDINE, reference compound] | 147 | 67 | 2188 | 1750 |  |  | 
12 | CC(=O)Oc1cc2c(cc1OC(C)=O)[C@@H]1c3ccc(OC(C)=O)c(OC(C)=O)c3OC[C@]1(OC(C)=O)C2 [HAEMATOXYLINPENTAACETATE] | 50 | 37 | 1040 | 1304 |  |  | 
13 | O=c1c(O)cccc2cc(O)c(O)c(O)c12 [PURPUROGALLIN] |  |  | 3508 | 2420 | 156 | 112 | 
14 | COc1cc([C@@H]2c3cc4c(cc3[C@H](OC(C)=O)[C@H]3COC(=O)[C@H]23)OCO4)cc(OC)c1OC [PODOPHYLLOTOXINACETATE] | 40 | 10 | 900 | 668 |  |  | 
15 | CCCCCCCCCCCCCCCc1ccco1 [AVOCADANOFURAN] | 59 | 32 | 880 | 1088 |  |  | 
16 | O=C1C(O)=C(O)C(=O)C(O)=C1O [TETROQUINONE] |  |  | 908 | 720 | 26 | 27 | 
17 | COc1ccc(C(=O)c2ccccc2)c(O)c1O | 47 | 37 | 780 | 1212 |  |  | 

Row | Compound | Activation 100 nL [%] | Activation 200 nL [%] | 100 nL (luminescence) [1] | 200 nL (luminescence) [2] | activation at 16 µM [%] | activation at 32 µM [%] | other results
18 | Oc1ccc2c(c1)OCC1c3cc4c(cc3OC21)OCO4 (stereo not shown) [MAACKIAIN] |  |  |  |  | 74 | 95 | 100 nL (luminescence) [3]: 1492; 200 nL (luminescence) [4]: 1772
19 | COC(=O)[C@H]1[C@H]2C[C@@H]3c4[nH]c5cc(OC)ccc5c4CCN3C[C@H]2C[C@@H](OC(=O)c2cc(OC)c(OC)c(OC)c2)[C@@H]1OC [RESERPINE, reference compound] |  |  | 1120 | 572 | 36 | 8 | 
20 | COc1cc([C@@H]2c3cc4c(cc3[C@@H](O[C@@H]3O[C@@H]5CO[C@@H](C)O[C@H]5[C@H](O)[C@H]3O)[C@H]3COC(=O)[C@H]23)OCO4)cc(OC)c1O [ETOPOSIDE, reference compound] |  |  | 1180 | 1484 | 40 | 89 | 
21 | O=C(O)/C=C/c1ccc(O)c(O)c1 [[…]] |  |  | 1040 | 1840 | 50 | 61 | 
22 | C[C@@H]1C(=O)O[C@H]2[C@H]1CC[C@@]1(C)C=CC(=O)[C@@]3(C)O[C@@]213 [EPOXY(4,5alpha)-4,5-DIHYDROSANTONIN] | 227 | 186 | 3828 | 3164 |  |  | 
23 | O=c1oc2cc(O)ccc2s1 [TIOXOLONE, reference compound] |  |  | 3542 | 768 | 156 | 31 | 
24 | CC(=O)N1CCN(c2ccc(OCC3CO[C@](Cn4ccnc4)(c4ccc(Cl)cc4Cl)O3)cc2)CC1 (stereo partly shown) [KETOCONAZOLE, reference compound] | 64 | 33 |  |  |  |  | 100 nL (luminescence): 1144; 200 nL (luminescence): 1026
25 | C=C(C)[C@@H]1CC=C(CO)CC1 [PERILLYLALCOHOL] |  |  |  |  | 31 | 27 | 100 nL (luminescence): 824; 200 nL (luminescence): 736
26 | CC(=O)O[C@@H]1CC2C(C)(C)C=CC(=O)[C@]2(C)C2CC[C@@]3(C)[C@H](c4ccoc4)OC(=O)C4OC43[C@@]21C (stereo partly shown) [ISOGEDUNIN] | 155 | 188 | 2724 | 3188 |  |  | 
27 | C=C1C[C@@H]2[C@H](CC[C@]3(C)C(=O)CC[C@@H]23)[C@@]2(C)C=CC(=O)C=C12 [EXEMESTANE, reference compound] |  |  | 4836 | 4668 | 261 | 220 | 
28 | COC(=O)C1=C(C)NC(C)=C(C(=O)OC)C1c1ccccc1[N+](=O)[O-] [NIFEDIPINE, reference compound] |  |  |  |  | 35 | -10 | 
29 | OC[C@H]1O[C@H]([S-])[C@H](O)[C@@H](O)[C@@H]1O.[Au+] [AUROTHIOGLUCOSE, reference compound] | 27 | 1 | 604 | 360 |  |  | 
30 | O=c1cc(-c2cc(O)c(O)c(O)c2)oc2cc(O)cc(O)c12 [HIERACIN] | 160 | 60 | 2502 | 1832 |  |  | 
31 | AVOCADYNOFURAN | 25 | 29 | 582 | 1008 |  |  | 
32 | COc1ccc2c(c1)OC/C(=C\c1ccc(OC)c(O)c1)C2=O [SAPPANONEADIMETHYLETHER] |  |  | 6124 | 2008 | 377 | 110 | 
33 | CCCCC1C(=O)N(c2ccccc2)N(c2ccc(O)cc2)C1=O (stereo not shown) [OXYPHENBUTAZONE, reference compound] | 113 | 131 | 1760 | 3084 |  |  | 
34 | CC1=C(/C=C/C(C)=C/C=C/C(C)=C\C(=O)O)C(C)(C)CCC1 [ISOTRETINON, reference compound] | 34 | 86 | 1068 | 1456 |  |  | 

— US9200046B2, “Reporter system for high throughput screening of compounds and uses thereof” (priority 2011, dated 2015)
